In patent US20170362590A1, “PHARMACEUTICAL COMPOSITIONS COMPRISING MICRORNA” (OREGON HEALTH & SCIENCE UNIVERSITY, priority 2016, published 2017):

How the values were obtained:
murine 4T1 tumors = assay: Orthotopic 4T1 tumor growth; type: in vivo; conditions: implanted orthotopically in Balb/C mice
Description: FIG. 5C is a graph of 4T1 tumor weights on day 21 after orthotopic mammary fat pad implantation of either control or miR-494-3p transfected tumors. N=8 mice per group and * indicates P<0.05.

[1] = test system: Matrigel plugs in nu/nu mice; assay: Matrigel plug angiogenesis assay in vivo
Experimental: Total RNA and microRNA were isolated using miRVana microRNA isolation kit (Ambion). Reverse transcription was performed using TaqMan™ Advanced cDNA Synthesis Kit (Life Tech) according to the manufacture instructions. RT-PCR was performed using multiplexed TaqMan primers (Applied Biosystems). The relative quantification of gene expression was determined using the 2-DDCtmethod. Using this method, we obtained the fold changes in gene expression normalized to an internal control gene, GAPDH or U6 snRNA, respectively. A DNA damage array (LifeTech) was used for targeting analysis and a Human Cellular Senescence array (SA Biosciences) was used for senescence phenotype profiling.
In some experiments, CD31a and Mre11a were visualized using immunofluorescence staining from OCT sections of tumor tissue. Slides were fixed with 4% PFA and stained overnight for CD31, Mre11a, or ASMC. Imaging was performed on a Nikon Spectral C1 confocal microscope (Nikon C1si with EZC1 acquisition software, Nikon Instruments) with Plan Apo 10×/0.45 air, Plan Apo 20×/0.75 air, and Plan Apo 60×/1.40 oil objective lenses (Nikon). Some immunofluorescence imaging was performed on a Yokogawa CSU-W1 spinning disk confocal microscope with 20 0.45 Plan Fluor objective (Nikon). All images were taken with a channel series. Images were analysed with Image J software for quantitation.
Immune-compromised 8-10 week old female nu/nu mice purchased from Jackson Labs. Growth factor reduced Matrigel (BD) with 400 ng ml 1 recombinant human bFGF (Millipore) was injected subcutaneously in nu/nu mice. Mice were injected i.v with 7C1-nanoparticles containing miR-494 or control miR (0.7 mg/kg, i.v) 3 or 4 days after plugs were implanted. At day 7 mice were harvest and lysed to obtained RNA or frozen in OCT for tissue staining.

HUVEC = assay: 3-D angiogenic sprouting assay (fibrin bead); type: cell-based; conditions: 3D-fibrinogen assay, co-culture with human aortic smooth muscle cells
Experimental: Early passage HUVECs were coated on cytodex-3 (GE Healthcare) beads at a density of 10 million cells/40 μl beads and incubated in suspension for 3-4 hours with gentle mixing every hour. They were plated on TC treated 6 well dishes overnight and resuspended in a 2 mg/ml fibrin gel with 200,000 human smooth muscle cells. The gel was allowed to polymerize and complete EGM-2 media was added. Sprouts were visualized from days 3-4 via confocal imaging after overnight incubation with FITC labeled Ulex europaeus lectin (Vector labs). Immunofluorescence imaging was performed on a Yokogawa CSU-W1 spinning disk confocal microscope with 20 0.45 Plan Fluor objective (Nikon).

breast cancer cell = assay: Breast cancer cell proliferation in 2D and 3D assays; type: cell-based; conditions: ectopic expression

## miR-494: Human miR-494-3p (SEQ ID NO: 1), used as miR mimic; in vivo delivered in 7C1 nanoparticles (sense UGAAACAUACACGGGAAACCUC; delivered in vivo in 7C1 nanoparticles, further chemistry not given here; listed as Homo sapiens)
Murine 4T1 tumors
  growth of 4T1 tumors: decreased the growth
[1]; Matrigel plugs, 7C1 nanoparticles
  Pecam1 mRNA expression in plugs relative to controls: lower expression
[1]; Matrigel plugs, miR delivered with endothelial targeted nanoparticle 7C1, 0.7 mg/kg i.v.
  less CD31 staining relative to controls: 50%
[1]; RNA isolated from Matrigel plugs, 7C1 nanoparticles
  Mre11a mRNA expression in plugs: significantly less Mre11a expression
HUVEC
  sprouting angiogenesis: inhibited sprouting angiogenesis
HUVEC; listed as miR-494-3p
  sprouting angiogenesis: inhibit sprouting angiogenesis
Breast cancer cell
  breast cancer cell proliferation: diminished breast cancer cell proliferation
